Like-named read-outs stand apart in the source and are kept apart here.

Holding throughout (format): cell-based
One assay concerns Anabaena sp. Nature of the assay: Detection of bioactive molecules with Anabaena sp.: inhibition of photosynthetic fluorescence (Luminotox). The following applies: 10 min, neutral pH; for inhibition at 0.001 ppm: 1 ppb. As to the method: The photosynthetic efficiency is determined with the following formula (F2−F1)/F2. Any molecule affecting directly or indirectly the photosystems modify either F1 or F2 which modification necessarily decreases the photosynthetic efficiency. The inhibition curve of a particular molecule is determined by calculating the activity of the photosystems in the absence of the molecule and in the presence of the molecule and comparing both efficiency as follows as described in Conrad 1993:
Without Inhibitor (wi): efficiency(wi)=(F2(wi)−F1(wi)/F2(wi) With Inhibitor: Relative photosynthetic efficiency(sample)=(F2(sample)−F1(sample))/F2(wi) Percentage Efficiency: efficiency (%)=(efficiency(sample)×100)/efficiency(wi) Percentage Inhibition: Inhibition (%)=100−efficiency (%)
An Anabaena sp. culture was prepared as described in Example 3 above. As indicated in Example 3, the cyanobacteria were reactivated before testing under ambient light and at room temperature during 60 minutes.
The culture was then incubated with bioactive molecules listed in Table 1 below at concentrations of 1 ppm (except for atrazine which was used at a concentration of 1 ppb) for 10 minutes under ambient light followed by 10 minutes under green light and neutral pH. The cellular concentration was 1.0×10^7 cells/mL (100 μL of cyanobacteria within 2 mL of bioactive agent containing aqueous solution (i.e. distilled water)). Testing was performed in triplicates. The fluorescence emitted by each formulation was then measured with Luminotox™ a fluorometer that measures photosynthetic activity.

Assay [1] deals with Chlorella vulgaris. The following applies: neutral pH (pH 7), 5×10^6 cells/mL. The method, then:
The algae concentration was 5×10^6 cells/mL (100 μL of algae within 2 mL of aqueous solution (i.e. distilled water)) containing the substance to detect at indicated concentrations. For each substances, 5 concentrations in triplicates were tested. The TOXSTAT™ software was used to calculate from inhibition values and standard deviations obtained, the maximum concentration without observable effect and the minimal concentration with observable effects. The threshold was calculated with the following formula: (maximum concentration without observable effect x minimal concentration with observable effects)^1/2 (See Table 2 below). The temperature was controlled by a thermostatic bath.
(§1) The detection threshold was obtained with the geometric mean. It was calculated with the following formula: Detection threshold=(CSEO×CMEO)^1/2 where
(§2) CMEO=minimal concentration resulting in a detectable inhibition of the algae efficacy.
(§3) CSEO and CMEO were estimated by a variance analysis ANNOVA™ followed by a Dunnett multiple comparison by comparing the mean efficacy of each tested concentration with the control mean. Calculations were performed with TOXSTAT™ (Version 3.5).

The subject of assay [2] is Dunaliella tertiolecta. Particulars: 15 min. green light exposition at room temperature; neutral pH (pH 7); 350 000 cells/mL. As to the method: as §1, §2, §3
(§4) A Dunaliella tertiolecta culture was prepared as described in Example 2 above. As indicated in Example 2, the algae were reactivated before testing under ambient light and at room temperature during 45 minutes.
The algae formulations were then incubated for 15 minutes with water containing one of the various contaminants listed in Table 2 below at neutral pH under green light and at room temperature. The algae concentration was 350 000 cells/mL (500 μL of algae within 2 mL of aqueous solution (i.e. distilled water) containing substance to detect at indicated concentrations). For each substances, 5 concentrations in triplicates were tested. The TOXSTAT™ software was used to calculate from inhibition values and standard deviations obtained, the maximum concentration without observable effect and the minimal concentration with observable effects (See Table 2 below). The temperature was controlled by a thermostatic bath. Tests were performed in triplicates. The fluorescence emitted by each formulation was then measured with Luminotox™, a fluorometer that measures photosynthetic activity and detection threshold determined as described in the Example above.

For assay [3], the system named is Chlorella vulgaris. Nature of the assay: Stability of Chlorella vulgaris assessed by the CI20 of atrazine. The following applies: 10 min green light, room temperature; + or − two sigma 0.002; algae stored at 4° C. and 20° C.; atrazine tested 0-0.04 mg/L. The method, then: The stability of Chlorella vulgaris was evaluated by determining the Cl20 of atrazine using seven different atrazine concentrations. Cl20 is the concentration of atrazine inhibiting 20% of the efficacy emitted by Chlorella vulgaris as compared to a control Chlorella vulgaris preparation. The Cl20 is statistically determined with the software Icp version 2.0. Stability over time is determined by assessing the number of Cl20 within a range of 2 σ of average.
A Chlorella vulgaris culture was prepared as described in Example 1 above. As indicated above, the algae were reactivated before testing during 90 minutes under ambient light and at room temperature.
The culture was then incubated with atrazine for 10 minutes under green light and at room temperature. The cellular concentration of the algae was 5×10^6 cells/mL of solution (100 μL algae in 2 mL of atrazine-containing aqueous solution (i.e. distilled water)). The concentration of atrazine varied between 0 and 0.04 mg/L. Testing was performed in triplicates. The fluorescence emitted by each formulation was then measured with Luminotox™, a fluorometer that measures photosynthetic activity.

Assay [4] concerns Chlorella vulgaris. The following applies: for Detection: 60 minutes of incubation; for Inhibition: 0.5 ppm, 15 minutes of incubation. As to the method: (§5) A Chlorella vulgaris culture was prepared as described in Example 1 above. As indicated in Example 1, the algae were reactivated before testing under ambient light and at room temperature during 90 minutes.
The formulation was then incubated under ambient light at 35° C. and at neutral pH with cadmium, copper, chromium, zinc, nickel, or lead, at indicated concentrations at incubation times varying between 15 minutes and 120 minutes. (FIGS. 9 to 12). The formulations were tested without additives or with 1 ppm cadmium, 0.1 ppm copper or 0.25 ppm copper as additive. The cellular concentration was 2.5×10^6 cells/mL (50 μL of algae within 2 mL of metal containing aqueous solution (i.e. distilled water)). Testing was performed in triplicates. The fluorescence emitted by each formulation was then measured with Luminotox™, a fluorometer that measures photosynthetic activity.

The test system of assay [5] is Chlorella vulgaris. The assay is described as follows: Stability of F2 fluorescence of Chlorella vulgaris incubated with additives. Particulars: up to 120 minutes of incubation. The method, then: F2 fluorescence levels produced by Chlorella vulgaris prepared as described in Example 1 above was measured after incubation with additives tested above, namely cadmium (0.5 ppm), cadmium (1 ppm), copper (0.1 ppm) and copper (0.25 ppm). As may be seen in FIG. 8, F2 fluorescence was stable after up to 120 minutes of incubation for each of these additives.

The subject of assay [6] is Chlorella vulgaris. The assay is described as follows: Inhibition of fluorescence emission of Chlorella vulgaris incubated at 35° C. The following applies: 15 minutes. As to the method:
The present invention also concerns a method for ammonia nitrogen detection comprising changing algal cell permeability. This compound is detected at 100 ppm at neutral pH but the increment of pH up to 11 decreases the threshold to 1 ppm. Algal permeability can also be modified by increasing the incubation temperature of the assay. For example, fluorescence emission is inhibited in 15 minutes by copper ions, tetracycline and progesterone if Chlorella vulgaris is incubated at 35° C., while at room temperature the detection of these compounds in 15 minutes was possible when these compounds are present at higher concentrations. Chlorella vulgaris is a freshwater alga and is used for freshwater monitoring while Dunaliella tertiolecta is used of for marine water monitoring.

The test system of assay [7] is Dunaliella tertiolecta. Nature of the assay: Progesterone detection with Dunaliella tertiolecta, green light versus white light then green light. Particulars: 0.25 h, 15 min green light only, 350 000 cells/mL, read-out: Maximum percentage inhibition. The method, then: as §4
The formulation was then incubated with progesterone at concentrations of 0; 0.05; […] or 1 ppm for 15 minutes under green light only or for 15 minutes under ambient light followed by 5 to 35 minutes under green light. The cellular concentration was 350 000 cells/mL (500 μL of algae within 2 mL of progesterone containing aqueous solution (i.e. distilled water)). Testing was performed in triplicates. The fluorescence emitted by each formulation was then measured with Luminotox™, a fluorometer that measures photosynthetic activity.

The test system of assay [8] is Chlorella vulgaris. The assay is described as follows: Detection of lead with Chlorella vulgaris with single additives or additive mixtures. The method, then:
as §5
The formulation was then incubated under ambient light at 35° C. and at neutral pH with lead, at indicated concentrations and at incubation times varying between 15 minutes and 120 minutes (FIGS. 13 to 16). The formulations were tested with or without additives used as single additives (Cd 1 ppm, Cu 0.1 ppm and Cu 0.25 ppm) or mixes of additives (Cu 0.1 ppm+Cd 0.5 ppm; Cu 0.1 ppm+Cd 1 ppm; Cu 0.25 ppm+Cd 1 ppm). The cellular concentration was 2.5×10^6 cells/mL (50 μL of algae within 2 mL of lead containing aqueous solution (i.e. distilled water) with or without additives). Testing was performed in triplicates. The fluorescence emitted by each formulation was then measured with Luminotox™ a fluorometer that measures photosynthetic activity.

Assay [9] has as its system Chlorella vulgaris. The assay is described as follows: Tetracycline detection with Chlorella vulgaris (ambient light, 35° C., low algae concentration). The following applies: within 15 minutes, neutral pH, 2.5×10^6 cells/mL. The method, then:
as §5
The algae formulation was then incubated for 15 or 60 minutes with water containing tetracycline at the indicated concentrations (FIG. 17) under ambient light at a temperature of 35° C. and at a neutral pH. Algae concentrations of 2.5×10^6 cells/mL (50 μL of algae within 2 mL of tetracycline-containing aqueous solutions (i.e. distilled water)) were tested. Testing was performed in triplicates. The fluorescence emitted by each formulation was then measured with Luminotox™, a fluorometer that measures photosynthetic activity.

Setting [10] is: 10-15 min. exposition to ambiant light at 35° C.

Broadly, the inhibition is the relative decrease from the control value, in per cent. On to `CCNc1nc(Cl)nc(NC(C)C)n1` [atrazine], for which the inhibition at 0.001 ppm in the assay with Anabaena sp. (10 min ambient light followed by 10 min green light, read-out: Inhibition obtained (followed by 10 min green light)) came to 13%; with Anabaena sp. (10 min ambient light, read-out: Inhibition obtained (10 min ambiant light)), 1%. Also, the Detection threshold was found to be 0.0007 ppm with Chlorella vulgaris [1] (10-15 min. green light exposition at room temperature) and 0.01 ppm with Dunaliella tertiolecta [2]. Moreover, the “CI20 (concentration inhibiting 20% of the efficacy), average over storage” value in the assay with Chlorella vulgaris [3] is 0.0037.
One may read the Inhibition as the share of the control response that was lost under treatment. In the case of `[Cu]` [Cu, Copper], the Detection threshold in the assay on Chlorella vulgaris [1] (setting [10]) turned out to be 0.25 ppm. Moreover, the Detection result in the assay with Chlorella vulgaris [4] (0.25 ppm, without additives) is “not detected”. Moreover, the Inhibition worked out at 30% with Chlorella vulgaris [4] (cadmium 1 ppm as additive) and 15% in the assay on Chlorella vulgaris [4] (without additive, ambient light 35° C.). For the same compound, the “F2 fluorescence over time” value with Chlorella vulgaris [5] (0.1 ppm) and in the assay on Chlorella vulgaris [5] (0.25 ppm) was “stable” each time. Besides, in the assay with Chlorella vulgaris [6], the Fluorescence emission entry is “inhibited”.
In the case of `CC(=O)[C@H]1CC[C@H]2[C@@H]3CCC4=CC(=O)CC[C@]4(C)[C@H]3CC[C@]12C` [progesterone], in the assay on Dunaliella tertiolecta [7], the inhibition at 1 ppm came out at 40%. Further, in the assay on Chlorella vulgaris [6], the Fluorescence emission result was “inhibited”.
`[Pb]` [Pb, Lead] gave a Detection threshold with Chlorella vulgaris [1] (setting [10]) below 0.5 ppm. Also, in the assay on Chlorella vulgaris [4] (1 ppm, without additive), the Detection entry was “detected although weakly”. Moreover, the “Concentration of lead detected” value in the assay with Chlorella vulgaris [8] (15 minutes of incubation, with mixtures of additives) worked out at 1 ppm; with Chlorella vulgaris [8] (30 minutes of incubation, mixture Cu 0.1 ppm+Cd 1 ppm) it was 0.1 ppm; in the assay with Chlorella vulgaris [8] (120 minutes of incubation, additive mixtures Cu 0.1 ppm+Cd 0.5 ppm and Cu 0.25 ppm+Cd 1 ppm) it was 0.01 ppm. Further, in the assay on Chlorella vulgaris [8] (60 minutes of incubation, all additive mixtures), the “Concentration of lead whose detection was increased” value was at least 0.1 ppm.
For `CN(C)[C@@H]1C(O)=C(C(N)=O)C(=O)[C@@]2(O)C(O)=C3C(=O)c4c(O)cccc4[C@@](C)(O)[C@H]3C[C@@H]12` [tetracycline], the inhibition at 1 ppm worked out at 30% in the assay on Anabaena sp. (10 min ambient light followed by 10 min green light, read-out: Inhibition obtained at 1 ppm (followed by 10 min green light)) and 0% in the assay on Anabaena sp. (10 min ambient light, 1.0×10^7 cells/mL, read-out: Inhibition obtained at 1 ppm (10 min ambiant light)). For the same compound, the Concentration detected in the assay on Chlorella vulgaris [9] came out at 10 µg/mL.
